Measurements from US20100303904A1, “TABLET WITH REMEDIAL COMPOSITION AND METHODS FOR TREATING MEDICAL DISORDERS AND AILMENTS” (BIO-PRO MEDICAL LTD., priority 2007, published 2010).

Tests used:
[1] = TNBS-induced IBD model in rats (Example 3); assay type: in vivo, Wistar rats; conditions: TNBS-induced model (FIG. 6); compared to negative and positive controls
Protocol: One day before the experiment the rats were weighted, marked according to the groups, and fasted for 24 hours (for colon emptying). At the day of the experiment the rats were anesthetized by an intra-peritoneal injection of halothene and colitis was induced by intra-rectal administration of 0.4 ml of a 25 mg/ml TNBS solution dissolved in 50% ethanol using an 8-cm long rubber catheter. Then, 0.4 ml of air was injected and the rats were kept in a Trendelenburg position for 30 sec to ensure that all TNBS solution left the catheter. Three rats received intra-rectal administration of saline and served as the negative control group. Coltect, 5-ASA, or their combination, were delivered by daily gavage of 0.5 ml solution starting from day 0. All rats were sacrificed after 7 days. Their 10-cm distal colon was removed, opened longitudinally along the anti-mesenteric side and was gently washed with ice-cold saline in order to remove all luminal content. Colon wet weight was weighed and the colonic injury was immediately examined under a stereomicroscope and the visible damage was scored, then part of the colons was placed in 10% formalin for histological evaluation and parts were frozen at […] for later evaluation. The induction and severity of colitis were evaluated by measuring: • 1. Daily body weight. • 2. Colon weight. • 3. Macro-Histological score damage.

[2] = tested on: Aberrant Crypt Foci (ACF); experiment: DMH-induced CRC model of aberrant crypt foci (ACF) in rats (Example 1); assay type: in vivo, Wistar rats; conditions: DMH 30 mg/kg rats; oral gavage; colons stained 60 days after DMH; Coltect 150 mg/kg, 5-ASA 50 mg/kg
Protocol: Age- and sex-matched 23 Wistar rats were purchased from the animal facilities at the Tel-Aviv Sourasky Medical Center (TASMC). The rats were injected subcutaneously twice a week for two weeks with 0.3 ml of 30 mg/kg body weight DMH (Sigma-Aldrich, Israel) dissolved in PBS, and groups (n=5) were randomly divided as follows (Table 1): The Coltect mixture was dissolved in a solution of DMSO (50%) and tap water. The solution was administered to the rats by oral gavage for five days, starting at the first day of DMH injections. During the experiment, the rats were weighed twice a week. Sixty days after DMH injections the rats were sacrificed by CO2 flow. The colons were removed and flushed with isotonic saline solution, opened longitudinally, cut into three parts of equal length, and labeled as proximal, middle and distal segments. The colons were laid open on a Wattman paper and fixed flat in 4% buffered formalin solution. The ACF were visualized and counted by using methylene blue staining (0.2% solution) and photographed. […] The number and multiplicity of ACF for each colonic segment were evaluated and recorded. The number and multiplicity of ACF were recorded separately for each segment. To determine multiplicity of ACF, the number of crypts in each focus was defined and recorded.

[3] = DSS-induced IBD model in mice (Example 2); assay type: in vivo, C57BL mice; conditions: first experiment (FIG. 4A); DSS 2.5%; Coltect 150 mg/kg, 5-ASA 50 mg/kg oral gavage 7 days
Protocol: Age- and sex-matched C57BL 5-weeks old female mice were obtained from Harlan Laboratories, Israel. […] Four mice received saline (2.5%) and served as the negative control group. The mice were randomly divided into groups (n=8) and received the corresponding treatment starting from the first day for 7 days (Table 3). The treatments were given in doses of 0.5 ml of tap water with 2% DMSO by oral gavage. The following doses were used: Coltect-150 mg/kg body weight; 5-ASA-50 mg/kg body weight. All mice were sacrificed 7 days after the enema, their spleen and colon were removed, fixed in 10% formalin for histological evaluation and parts were frozen at […] for later examination. For macroscopic injury evaluation a revised colonic damage scoring system was used as described by Morris et al. Thus, the severity of colitis was determined based on the following parameters: • 1. Disease Activity Index (DAI): weight loss, gross bleeding, stool consistency (Table 2)—were daily recorded. • 2. Spleen weight. • 3. Colon length. • 4. Histological score. For histological injury evaluation tissues fixed in 10% formalin, were embedded in paraffin wax and cut. 4 μm sections were histologically stained and evaluated by light microscopy for ulceration and inflammation. [table]

[4] = tested on: Aberrant Crypt Foci (ACF); experiment: DMH-induced ACF formation, Coltect versus its ingredients (Example 5a); assay type: in vivo, Wistar rats; conditions: DMH 50 mg/kg rats; daily oral gavage 2 weeks; sacrificed after 2 months (FIG. 10A)
Protocol: In these experiments the concentration of the ingredients used was determined based on their ratio in the Coltect mixture. As used in the above experiments, the Coltect concentration administered to the model animals was 150 mg/kg. Since a ratio of ⅔ Curcumin to ⅓ Green Tea was used in the Coltect mixture, the administered Curcumin concentration was 100 mg/kg and the Green tea concentration was 50 mg/kg. The Curcumin to Selenium ratio in the Coltect mixture was 500 mg Curcumin to 0.1 mg Selenium, therefore, the administered Selenium concentration was 0.02 mg/kg body weight. The final administered concentrations of the Coltect components are presented in Table 6 below: Forty seven age- and sex-matched Wistar rats were obtained from the animal facility at TASMC. The rats were injected subcutaneously twice a week for two weeks with 0.3 ml of 50 mg/kg body weight DMH (Sigma-Aldrich, Israel) dissolved in PBS, and groups were randomly divided as shown in Table 7. The Coltect compound and its components were daily administered simultaneously for 2 weeks by oral gavage. The rats were sacrificed after 2 months. Reference is now made to FIG. 9 presenting Methylene blue ACF staining performed according to the protocol described in the above Example 1, of normal mucosa (A) aberrant crypt foci containing small ACF with 1-3 crypts (B) and large ACF with more than three crypts (C).

[5] = DSS-induced colitis in mice, Coltect versus its components (Example 5b); assay type: in vivo, C57BL mice
Protocol: In these experiments the concentration of the ingredients used was determined based on their ratio in the Coltect mixture. As used in the above experiments, the Coltect concentration administered to the model animals was 150 mg/kg. Since a ratio of ⅔ Curcumin to ⅓ Green Tea was used in the Coltect mixture, the administered Curcumin concentration was 100 mg/kg and the Green tea concentration was 50 mg/kg. The Curcumin to Selenium ratio in the Coltect mixture was 500 mg Curcumin to 0.1 mg Selenium, therefore, the administered Selenium concentration was 0.02 mg/kg body weight.
Age- and sex-matched C57BL 5-weeks old female mice were obtained from Harlan Laboratories, Israel. After one week of acclimation, the mice (n=52) were treated with 2.5% DSS administered in the drinking water for 5 days ad libitum, followed by two days of tap water. The treatments were given in doses of 0.3 ml of tap water with 2% DMSO by oral gavage. The mice were randomly divided into 8 sub-groups (n=6) and a control group (n=4) treated as described in Table 8.

Structure (SMILES)	Changes in body weight [1]	Number of crypts in treated colons: 1-3 crypts [2]	Number of crypts in treated colons: >4 crypts [2]	DAI score [3]	Reduction in number of ACFs relative to the positive control [4]	DAI score ([5]; DSS 2.5% mice (FIG. 11), oral gavage)	Colon length, in words ([5]; DSS-induced mice, day seven (FIG. 12))
Nc1ccc(O)c(C(=O)O)c1 [5-ASA, 5-aminosalicylic acid]	no substantial changes in body weight	28 ± 4.1	11.6 ± 3.9	relatively higher DAI scores	–	–	–
C[Se]CC[C@H](N)C(=O)O [Selenium, Selenomethionine]	–	–	–	–	about 30%	2.33±1.33	longer colons
